One data set has as its system Candida albicans. The data set can be described thus: Antifungal activity against azole-resistant Candida albicans 99-788. It counts as functional, organism-based.
The next data set deals with CCRF-CEM. Briefly: Cytotoxicity against human CEM cells after 96 hrs. It counts as functional, cell-based.
A short description of a further data set: in vitro. The conditions noted are these: human.
Where [1] appears, read: CEM cells (versus azole-resistant Candida albicans 99-788).

Each structure is given as a SMILES string.

Description for in vitro: Therapeutic index, IC50 for human CEM cells to IC 50 for azole-resistant Candida albicans 99-788

On to `C[C@@H]1[C@H](O)[C@@H](C)/C=C/C=C/C=C/C=C/C=C/C=C/C=C/[C@H](O[C@@H]2O[C@H](C)[C@@H](O)[C@H](N)[C@@H]2O)C[C@@H]2O[C@](O)(C[C@@H](O)C[C@@H](O)[C@H](O)CC[C@@H](O)C[C@@H](O)CC(=O)O[C@H]1C)C[C@H](O)[C@H]2C(=O)O` [AMPHOTERICIN B], for which the IC50 (in general, the concentration at which inhibition is half-maximal) amounted to 0.16 µM in the data set with Candida albicans and 160 µM in the data set with CCRF-CEM. Moreover, the selectivity ratio in the data set “in vitro” (ccrf-cem) was 1000.

Turning to `CN1C(=O)[C@]23CC4=CC=C[C@H](O)[C@H]4N2C(=O)[C@@]1(CO)SS3` [GLIOTOXIN], the half-maximal inhibitory concentration (IC50) was found to be 3.1 µM in the data set on Candida albicans and 0.15 µM in the data set with CCRF-CEM.

`CON1C(=O)C2NC(=O)[C@@]13Oc1cc(O)c(Cl)cc1[C@@H]3SSSS2` [TETRATHIOASPIROCHLORINE]: the IC50 worked out at 0.083 µM with Candida albicans and 4.2 µM in the data set with CCRF-CEM. In “in vitro” (setting [1]), the selectivity ratio was 50.

Turning to `CC(C)C[C@@H]1C(=O)N[C@@H](Cc2c[nH]c3ccccc23)C(=O)N1C`, the IC50 in the data set on Candida albicans and in the data set with CCRF-CEM was greater than 31 µM each time.

In the case of `CON1C(=O)[C@H]2NC(=O)[C@]13Oc1cc(O)c(Cl)cc1[C@@H]3SS2` [ASPIROCHLORINE], the figures for the IC50 in the data set with Candida albicans and with CCRF-CEM were 0.028 µM and 0.58 µM, respectively. In addition, the selectivity ratio in the data set “in vitro” (setting [1]) is 20.

On to `COC1=CC(=O)C[C@@H](C)[C@]12Oc1c(Cl)c(OC)cc(OC)c1C2=O` [GRISEOFULVIN], for which the half-maximal inhibitory concentration (IC50) with Candida albicans was greater than 28 µM; with CCRF-CEM, 10 µM.

These data come from ChEMBL document CHEMBL1141795, “Aspirochlorine class compounds from Aspergillus flavus inhibit azole-resistant Candida albicans” (J Nat Prod, 2005).
